This assay relates to T cells (lymph node cells/splenocytes from immunized animals). The experiment in a line: T cell proliferation assay ([3H]-thymidine). The note with it: fold vs medium control. Type of assay: cell-based, A/J mice. The procedure:
At termination, lymph nodes (maxillary, mandibular, axillary, inguinal, and popliteal) and spleens were harvested from immunized animals to prepare single cell suspensions. Similarly, splenocytes were prepared from naive animals. After lysing the erythrocytes and washing, cell pellets were suspended in RPMI medium containing 10% fetal bovine serum, 1 mM sodium pyruvate, 4 mM L-glutamine, 1 × each of non-essential amino acids and vitamin mixture, and 100 U/ml penicillin–streptomycin (Lonza, Walkersville, MD, USA; hereafter called growth medium). In some experiments, CD4 T cells and CD8 T cells were enriched to a purity of ~95% by negative selection based on magnetic separation using IMAG (BD Biosciences, San Jose, CA, USA) ([31]). To stimulate CD4 and CD8 T cells, syngeneic naive irradiated splenocytes loaded with peptides were used as antigen-presenting cells at a ratio of 1:1. Cells were stimulated at a density of ~5 × 10^6 cells/ml in triplicates with or without the immunizing peptides (0–100 µg/ml) in growth medium. RNase 43–56 or HEL 46–61 were used as irrelevant controls. After 2 days, cells were pulsed with tritiated ^3[H]-thymidine (1 μCi/well; MP Biomedicals, Santa Ana, CA, USA), and 16 h later, proliferative responses were measured as counts per minute (cpm) using a Wallac liquid scintillation counter (Perkin Elmer, Waltham, MA, USA) ([26], [28], [30]).

The mark [1] stands for this setting: 10 μg/ml, animals immunized with pool II.
Where [2] appears, read: 100 μg/ml, animals immunized with pool II.
The mark [3] stands for this setting: 10 μg/ml, animals immunized with pool I.
Where [4] appears, read: 100 μg/ml, animals immunized with pool I.
The mark [5] stands for this setting: 10 μg/ml, animals immunized with pool III.
[6] abbreviates: 100 μg/ml, animals immunized with pool III.
[7] abbreviates: 10 μg/ml, animals immunized with pool V.
Setting [8] is: 100 μg/ml, animals immunized with pool V.
Setting [9] is: 10 μg/ml, animals immunized with pool VI.
The mark [10] stands for this setting: 100 μg/ml, animals immunized with pool VI.

This note sets out measurements from PMC5701947, “β1-Adrenergic Receptor Contains Multiple IA^k and IE^k Binding Epitopes That Induce T Cell Responses with Varying Degrees of Autoimmune Myocarditis in A/J Mice” (Frontiers in Immunology, 2017).

For the substance “BAR 101-120: 20-mer of mouse β1AR peptide library (ASADLVMGLLVVPFGATIVV; UniProt P34971 101-120, looked up, fragment)”, the T cell responses by setting is: under setting [1], 1.01 fold; under setting [2], 1.02 fold.

As to “β1AR 1-20: 20-mer of mouse β1AR peptide library (MGAGALALGASEPCNLSSAA; UniProt P34971 1-20, looked up, fragment)”, the T cell responses reads like this: under setting [3], 1.52 fold; under setting [4], 1.90 fold.

As to “β1AR 11-30: 20-mer of mouse β1AR peptide library (SEPCNLSSAAPLPDGAATAA; UniProt P34971 11-30, looked up, fragment)”, the T cell responses runs as follows: under setting [3], 1.84 fold; under setting [4], 2.06 fold.

Turning to “β1AR 21-40: 20-mer of mouse β1AR peptide library (PLPDGAATAARLLVLASPPA; UniProt P34971 21-40, looked up, fragment)”, the T cell responses by setting is: under setting [3], 1.33 fold; under setting [4], 1.43 fold.

“β1AR 31-50: 20-mer of mouse β1AR peptide library (RLLVLASPPASLLPPASEGS; UniProt P34971 31-50, looked up, fragment)”: the T cell responses turned out to be 0.97 fold under setting [3] and 1.30 fold under setting [4].

Regarding “β1AR 41-60: 20-mer of mouse β1AR peptide library (SLLPPASEGSAPLSQQWTAG; UniProt P34971 41-60, looked up, fragment)”, the T cell responses by setting is: under setting [3], 0.84 fold; under setting [4], 1.10 fold.

Regarding “β1AR 51-70: 20-mer of mouse β1AR peptide library (APLSQQWTAGMGLLLALIVL; UniProt P34971 51-70, looked up, fragment)”, the T cell responses runs as follows: under setting [1], 1.10 fold; under setting [2], 1.38 fold.

Turning to “β1AR 71-90: 20-mer of mouse β1AR peptide library (LIVVGNVLVIVAIAKTPRLQ; UniProt P34971 71-90, looked up, fragment)”, the T cell responses under setting [1] is 2.71 fold and the T cell responses under setting [2] is on record as 3.78 fold.

Take “β1AR 81-100: 20-mer of mouse β1AR peptide library (VAIAKTPRLQTLTNLFIMSL; UniProt P34971 81-100, looked up, fragment)”: the T cell responses is 1.65 fold under setting [1] and 2.36 fold under setting [2].

For the substance “β1AR 91-110: 20-mer of mouse β1AR peptide library (TLTNLFIMSLASADLVMGLL; UniProt P34971 91-110, looked up, fragment)”, the T cell responses worked out at 1.67 fold under setting [1] and 1.93 fold under setting [2].

With “β1AR 111-130: 20-mer of mouse β1AR peptide library (VVPFGATIVVWGRWEYGSFF; UniProt P34971 111-130, looked up, fragment)”, the T cell responses under setting [5] turned out to be 1.97 fold and the T cell responses under setting [6] is 2.49 fold.

On to “β1AR 121-140: 20-mer of mouse β1AR peptide library (WGRWEYGSFFCELWTSVDVL; UniProt P34971 121-140, looked up, fragment)”, for which the T cell responses was 1.08 fold under setting [5] and 1.26 fold under setting [6].

Take “β1AR 131-150: 20-mer of mouse β1AR peptide library (CELWTSVDVLCVTASIETLC; UniProt P34971 131-150, looked up, fragment)”: the T cell responses is, setting by setting: under setting [5], 1.28 fold; under setting [6], 1.72 fold.

Turning to “β1AR 151-170: 20-mer of mouse β1AR peptide library (VIALDRYLAITSPFRYQSLL; UniProt P34971 151-170, looked up, fragment)”, the T cell responses is, setting by setting: under setting [5], 2.24 fold; under setting [6], 2.43 fold.

For the substance “β1AR 161-180: 20-mer of mouse β1AR peptide library (TSPFRYQSLLTRARARALVC; UniProt P34971 161-180, looked up, fragment)”, the T cell responses is listed as 1.03 fold under setting [5] and 1.29 fold under setting [6].

As to “β1AR 221-240: 20-mer of mouse β1AR peptide library (NRAYAIASSVVSFYVPLCIM; UniProt P34971 221-240, looked up, fragment)”, the T cell responses runs as follows: under setting [7], 1.18 fold; under setting [8], 1.01 fold.

Take “β1AR 231-250: 20-mer of mouse β1AR peptide library (VSFYVPLCIMAFVYLRVFRE; UniProt P34971 231-250, looked up, fragment)”: the T cell responses is, setting by setting: under setting [7], 1.42 fold; under setting [8], 1.85 fold.

Turning to “β1AR 241-260: 20-mer of mouse β1AR peptide library (AFVYLRVFREAQKQVKKIDS; UniProt P34971 241-260, looked up, fragment)”, the T cell responses runs as follows: under setting [7], 1.52 fold; under setting [8], 2.02 fold.

“β1AR 251-270: 20-mer of mouse β1AR peptide library (AQKQVKKIDSCERRFLGGPA; UniProt P34971 251-270, looked up, fragment)” came in with a T cell responses under setting [7] of 1.12 fold and a T cell responses under setting [8] of 1.81 fold.

In turn, “β1AR 261-280: 20-mer of mouse β1AR peptide library (CERRFLGGPARPPSPEPSPS; UniProt P34971 261-280, looked up, fragment)” gave a T cell responses under setting [7] of 0.86 fold and a T cell responses under setting [8] of 1.32 fold.

For “β1AR 271-290: 20-mer of mouse β1AR peptide library (RPPSPEPSPSPGPPRPADSL; UniProt P34971 271-290, looked up, fragment)”, the T cell responses by setting is: under setting [9], 1.05 fold; under setting [10], 1.13 fold.

As for “β1AR 281-300: 20-mer of mouse β1AR peptide library (PGPPRPADSLANGRSSKRRP; UniProt P34971 281-300, looked up, fragment)”, the T cell responses was determined as 0.92 fold under setting [9] and 0.93 fold under setting [10].

Substance “β1AR 291-310: 20-mer of mouse β1AR peptide library (ANGRSSKRRPSRLVALREQK; UniProt P34971 291-310, looked up, fragment)” showed a T cell responses under setting [9] of 0.87 fold and a T cell responses under setting [10] of 1.66 fold.

As for “β1AR 301-320: 20-mer of mouse β1AR peptide library (SRLVALREQKALKTLGIIMG; UniProt P34971 301-320, looked up, fragment)”, the T cell responses is, setting by setting: under setting [9], 2.03 fold; under setting [10], 1.93 fold.

Consider “β1AR 311-330: 20-mer of mouse β1AR peptide library (ALKTLGIIMGVFTLCWLPFF; UniProt P34971 311-330, looked up, fragment)”, for which the T cell responses under setting [9] was found to be 1.30 fold and the T cell responses under setting [10] stood at 1.21 fold.

With “β1AR 321-340: 20-mer of mouse β1AR peptide library (VFTLCWLPFFLANVVKAFHR; UniProt P34971 321-340, looked up, fragment)”, the T cell responses came to 3.23 fold (10 μg/ml, animals immunized with pool VII) and 2.21 fold (100 μg/ml, animals immunized with pool VII).
